Laboratory results reported in the supplement of paper PMC4862054.

Assays:
Conditions in all cases: incubation time: 72 h
[1] = tested on: CAL-148; test: drug sensitivity score (DSS), CellTiter-Glo (DSS (AUC-based score)); higher = stronger drug effect (viability inhibition or cytotoxicity); extreme values may be limits of the assay
Method in brief: (§1)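 Breast cancer cells were seeded into 384-well plates containing compound at 5 concentrations in 10-fold steps over a compound-specific 10,000-fold range and incubated 72 h. After CellTox Green and CellTiter-Glo readings, each plate was normalised to 0.1 % DMSO and a positive kill control. The drug sensitivity score rests on the area under the fitted dose-response curve.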

[2] = tested on: MDA-MB-436; test: as above
Method in brief: as §1

[3] = tested on: CAL-120; test: normalised viability (% of control), CellTiter-Blue; higher = more viable cells (about 100 = DMSO control)
Method in brief: (§2)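 Seeded at 20 µl suspension per well onto compound-loaded 384-well plates, breast cancer cell lines were incubated 72 h. CellTiter-Blue fluorescence at 560/590 nm was then read, with each plate normalised to vehicle (100) and a positive kill control (0). Normalised viability is reported at a single listed concentration of the series.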

[4] = tested on: DU-4475; test: as above
Method in brief: as §2

[5] = tested on: Hs578T; test: as above
Method in brief: as §2

[6] = tested on: MDA-MB-231; test: as above
Method in brief: as §2

[7] = tested on: CAL-148; test: as above
Method in brief: as §2

[8] = tested on: HCC1143; test: as above
Method in brief: as §2

[9] = tested on: CAL-51; test: as above
Method in brief: as §2

[10] = tested on: SK-BR-3; test: as above
Method in brief: as §2

[11] = tested on: MFM-223; test: as above
Method in brief: as §2

[12] = tested on: MDA-MB-436; test: as above
Method in brief: as §2

[13] = tested on: HCC1937; test: as above
Method in brief: as §2

[14] = tested on: BT-549; test: as above
Method in brief: as §2

[15] = tested on: MDA-MB-453; test: as above
Method in brief: as §2

[16] = tested on: HCC1599; test: as above
Method in brief: as §2

[17] = tested on: BT-474; test: as above
Method in brief: as §2

[18] = tested on: HDQ-P1; test: as above
Method in brief: as §2

[19] = tested on: CAL-85-1; test: as above
Method in brief: as §2

[20] = tested on: MDA-MB-468; test: as above
Method in brief: as §2

COc1cc2c(N3CCN(C(=O)Nc4ccc(OC(C)C)cc4)CC3)ncnc2cc1OCCCN1CCCCC1 [Tandutinib]
Conditions	drug sensitivity score
[1]	0
[2]	0

normalised viability [%]
Conditions	0.3 nM	1 nM	3 nM	10 nM	100 nM	1000 nM
[3]	–	110	–	–	106	114
[4]	107	–	92.9	98.1	–	–
[5]	–	115	–	–	116	96.2
[6]	–	107	–	–	108	122
[7]	100	–	102	105	–	–
[8]	–	100	–	–	118	108
[9]	110	–	101	94.2	–	–
[10]	–	111	–	–	111	114
[11]	–	104	–	–	98	113
[12]	–	95	–	–	81.9	112
[13]	–	101	–	–	78.2	115
[14]	–	108	–	–	95.2	94.1
[15]	117	–	94.9	96.9	–	–
[16]	–	99.1	–	–	121	103
[17]	–	138	–	–	116	125
[18]	105	–	95.5	109	–	–
[19]	102	–	91.2	103	–	–
[20]	–	105	–	–	118	110

C[C@@H](C(=O)O)c1ccc(-c2ccccc2)c(F)c1 [Tarenflurbil]
Conditions	drug sensitivity score
[1]	0
[2]	0

normalised viability [%]
Conditions	3 nM	10 nM	30 nM	100 nM	1000 nM	10000 nM
[3]	–	94	–	–	92.2	99.4
[4]	101	–	95.6	108	–	–
[5]	–	97.7	–	–	106	92.6
[6]	–	97.8	–	–	88.6	103
[7]	80	–	96.6	87.3	–	–
[8]	–	86.4	–	–	95.3	86.9
[9]	118	–	115	111	–	–
[10]	–	99.3	–	–	105	126
[11]	–	93.6	–	–	97.2	93.2
[12]	–	104	–	–	90.4	138
[13]	–	84.3	–	–	92.9	102
[14]	–	97.6	–	–	104	112
[15]	106	–	89.2	85.6	–	–
[16]	–	94.6	–	–	118	106
[17]	–	112	–	–	107	113
[18]	106	–	106	98.9	–	–
[19]	87.2	–	88.4	93	–	–
[20]	–	100	–	–	119	90

Cn1nnc2c(C(N)=O)ncn2c1=O [Temozolomide]
Conditions	drug sensitivity score
[1]	0
[2]	0

normalised viability [%]
Conditions	3 nM	10 nM	30 nM	100 nM	1000 nM	10000 nM
[3]	–	101	–	–	104	100
[4]	108	–	95.3	113	–	–
[5]	–	104	–	–	92.7	85.1
[6]	–	101	–	–	88	91
[7]	94	–	88.8	93	–	–
[8]	–	90.5	–	–	95.9	102
[9]	91.1	–	96.3	91.4	–	–
[10]	–	95.1	–	–	99.8	113
[11]	–	98.4	–	–	96.7	103
[12]	–	102	–	–	91.3	101
[13]	–	88.3	–	–	105	116
[14]	–	105	–	–	91.6	74.7
[15]	112	–	108	100	–	–
[16]	–	103	–	–	89.8	117
[17]	–	94.7	–	–	100	87.5
[18]	95.6	–	88.5	27.3	–	–
[19]	102	–	98.2	107	–	–
[20]	–	92.3	–	–	89.5	99.1

CC[C@@H]1C(=O)N(C)c2cnc(Nc3ccc(C(=O)N[C@H]4CC[C@H](N5CCN(CC6CC6)CC5)CC4)cc3OC)nc2N1C(C)C [Volasertib]
Conditions	drug sensitivity score
[1]	4.27
[2]	12.9

normalised viability [%]
Conditions	0.3 nM	1 nM	3 nM	10 nM	100 nM	1000 nM
[3]	–	91.1	–	–	26.8	24.7
[4]	98.4	–	88.2	86.1	–	–
[5]	–	111	–	–	40.3	35.1
[6]	–	114	–	–	36.3	45.9
[7]	98.2	–	94.8	72	–	–
[8]	–	86.3	–	–	41.2	41.2
[9]	116	–	99.8	100	–	–
[10]	–	105	–	–	20.7	24.1
[11]	–	88.8	–	–	48.9	56.2
[12]	–	113	–	–	83.5	80.8
[13]	–	131	–	–	30.8	34.9
[14]	–	94.9	–	–	36.9	41.6
[15]	117	–	89.9	46.2	–	–
[16]	–	94.6	–	–	86.2	74
[17]	–	127	–	–	56.6	96.8
[18]	108	–	84	76.4	–	–
[19]	96.4	–	86.7	82.3	–	–
[20]	–	104	–	–	45	51.9
